Source: ChEMBL document CHEMBL3991601, “The target landscape of clinical kinase drugs” (Science, 2017)
Activity calls are given as the source filed them.

How the values were obtained:
[1] = molecular target: T1, Beta-adrenergic receptor kinase 1 (Homo sapiens, UniProt P25098)
T1 sequence (P25098 whole entry): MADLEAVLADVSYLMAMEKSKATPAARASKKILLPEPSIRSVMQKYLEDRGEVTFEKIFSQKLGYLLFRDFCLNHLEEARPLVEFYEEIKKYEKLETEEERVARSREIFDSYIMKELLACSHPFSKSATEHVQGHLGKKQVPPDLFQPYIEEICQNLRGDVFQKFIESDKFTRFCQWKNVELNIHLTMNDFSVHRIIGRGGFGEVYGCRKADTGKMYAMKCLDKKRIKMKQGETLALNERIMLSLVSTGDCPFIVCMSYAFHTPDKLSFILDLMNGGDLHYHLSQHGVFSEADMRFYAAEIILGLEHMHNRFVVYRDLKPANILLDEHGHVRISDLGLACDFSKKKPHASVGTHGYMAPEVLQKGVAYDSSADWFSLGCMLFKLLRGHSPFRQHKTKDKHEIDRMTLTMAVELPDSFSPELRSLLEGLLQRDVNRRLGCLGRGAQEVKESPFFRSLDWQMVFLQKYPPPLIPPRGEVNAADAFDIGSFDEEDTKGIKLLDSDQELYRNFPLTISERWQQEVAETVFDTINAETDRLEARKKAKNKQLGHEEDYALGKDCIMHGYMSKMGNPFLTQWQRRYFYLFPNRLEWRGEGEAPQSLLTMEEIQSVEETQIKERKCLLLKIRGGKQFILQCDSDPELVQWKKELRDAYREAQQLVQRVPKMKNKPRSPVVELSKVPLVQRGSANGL

[2] = molecular target: T2, Serine/threonine-protein kinase Nek9 (Homo sapiens, UniProt Q8TD19)
T2 sequence (Q8TD19 whole entry): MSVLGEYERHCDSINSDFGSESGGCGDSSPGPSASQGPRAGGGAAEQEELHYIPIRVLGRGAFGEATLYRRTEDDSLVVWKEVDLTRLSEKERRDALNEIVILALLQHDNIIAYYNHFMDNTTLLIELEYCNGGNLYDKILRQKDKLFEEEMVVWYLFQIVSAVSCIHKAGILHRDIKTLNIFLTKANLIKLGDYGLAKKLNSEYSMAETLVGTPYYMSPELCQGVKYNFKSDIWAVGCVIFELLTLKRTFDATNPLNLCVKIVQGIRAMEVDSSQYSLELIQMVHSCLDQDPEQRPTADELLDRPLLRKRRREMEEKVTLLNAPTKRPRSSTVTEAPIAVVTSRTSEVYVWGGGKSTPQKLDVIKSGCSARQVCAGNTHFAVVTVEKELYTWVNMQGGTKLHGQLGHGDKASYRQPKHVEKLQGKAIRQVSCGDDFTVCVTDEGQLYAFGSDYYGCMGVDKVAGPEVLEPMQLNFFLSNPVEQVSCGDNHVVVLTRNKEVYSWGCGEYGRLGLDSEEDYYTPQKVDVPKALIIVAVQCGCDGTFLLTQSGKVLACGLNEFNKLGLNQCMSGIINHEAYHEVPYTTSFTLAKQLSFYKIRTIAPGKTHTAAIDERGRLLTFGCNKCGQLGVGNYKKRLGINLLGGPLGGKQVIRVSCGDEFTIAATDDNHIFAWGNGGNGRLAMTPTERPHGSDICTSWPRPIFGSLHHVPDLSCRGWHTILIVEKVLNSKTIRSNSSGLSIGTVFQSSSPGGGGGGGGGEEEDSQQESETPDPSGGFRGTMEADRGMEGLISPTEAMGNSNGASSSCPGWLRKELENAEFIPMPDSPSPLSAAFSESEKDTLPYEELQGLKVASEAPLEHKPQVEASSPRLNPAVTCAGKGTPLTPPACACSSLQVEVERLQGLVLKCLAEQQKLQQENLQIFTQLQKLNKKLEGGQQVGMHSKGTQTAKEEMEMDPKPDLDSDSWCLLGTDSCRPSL

[3] = molecular target: Tyrosine-protein kinase HCK (Homo sapiens, UniProt P08631)
Activin receptor type-2B = Activin receptor type-2B (Homo sapiens, UniProt Q13705)
[4] = molecular target: Serine/threonine-protein kinase MRCK alpha (Homo sapiens, UniProt Q5VT25)
Ephrin type-B receptor 3 = molecular target: T3, Ephrin type-B receptor 3 (Homo sapiens, UniProt P54753)
T3 sequence (P54753 whole entry): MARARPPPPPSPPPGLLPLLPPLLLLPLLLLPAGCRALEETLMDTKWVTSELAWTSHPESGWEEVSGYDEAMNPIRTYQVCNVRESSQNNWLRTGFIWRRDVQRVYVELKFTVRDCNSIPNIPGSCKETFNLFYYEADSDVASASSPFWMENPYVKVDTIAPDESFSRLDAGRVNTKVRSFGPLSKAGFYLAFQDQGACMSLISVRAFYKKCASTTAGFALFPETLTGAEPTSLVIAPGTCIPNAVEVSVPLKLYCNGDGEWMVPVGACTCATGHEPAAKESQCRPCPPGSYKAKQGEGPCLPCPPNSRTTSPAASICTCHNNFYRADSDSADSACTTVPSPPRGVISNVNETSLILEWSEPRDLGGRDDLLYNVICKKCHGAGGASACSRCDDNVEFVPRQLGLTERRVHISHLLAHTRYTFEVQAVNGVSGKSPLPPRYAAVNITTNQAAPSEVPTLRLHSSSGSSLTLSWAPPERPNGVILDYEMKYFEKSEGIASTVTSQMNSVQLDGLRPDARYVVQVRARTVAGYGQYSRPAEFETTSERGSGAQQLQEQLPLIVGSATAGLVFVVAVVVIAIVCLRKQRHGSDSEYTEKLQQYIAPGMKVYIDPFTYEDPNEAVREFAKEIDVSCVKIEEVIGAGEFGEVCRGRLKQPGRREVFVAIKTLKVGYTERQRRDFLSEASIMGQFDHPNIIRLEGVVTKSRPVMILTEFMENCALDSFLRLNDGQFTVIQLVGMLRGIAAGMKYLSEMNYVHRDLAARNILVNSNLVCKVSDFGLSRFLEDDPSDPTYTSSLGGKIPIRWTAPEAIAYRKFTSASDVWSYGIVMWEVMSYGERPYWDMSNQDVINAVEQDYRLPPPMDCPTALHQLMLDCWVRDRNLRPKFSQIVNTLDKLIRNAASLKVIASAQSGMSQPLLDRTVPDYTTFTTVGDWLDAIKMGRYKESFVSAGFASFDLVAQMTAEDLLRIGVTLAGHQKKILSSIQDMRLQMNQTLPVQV

[5] = molecular target: NADH dehydrogenase [ubiquinone] 1 alpha subcomplex subunit 13 (Homo sapiens, UniProt Q9P0J0)
[6] = molecular target: Eukaryotic translation initiation factor 2-alpha kinase 1 (Homo sapiens, UniProt Q9BQI3)
[7] = molecular target: Ribosomal protein S6 kinase alpha-3 (Homo sapiens, UniProt P51812)
[8] = molecular target: Atypical kinase COQ8A, mitochondrial (Homo sapiens, UniProt Q8NI60)
Further: in the data inactive means no Kd found up to 30 µM.

Chain of NADH dehydrogenase [ubiquinone] 1 alpha subcomplex subunit 13 (Q9P0J0 whole entry, one chain of several): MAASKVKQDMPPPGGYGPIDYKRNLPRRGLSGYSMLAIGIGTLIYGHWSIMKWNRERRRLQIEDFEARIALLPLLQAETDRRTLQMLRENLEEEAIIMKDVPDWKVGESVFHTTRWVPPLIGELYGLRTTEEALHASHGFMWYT
Chain of Eukaryotic translation initiation factor 2-alpha kinase 1 (Q9BQI3 whole entry): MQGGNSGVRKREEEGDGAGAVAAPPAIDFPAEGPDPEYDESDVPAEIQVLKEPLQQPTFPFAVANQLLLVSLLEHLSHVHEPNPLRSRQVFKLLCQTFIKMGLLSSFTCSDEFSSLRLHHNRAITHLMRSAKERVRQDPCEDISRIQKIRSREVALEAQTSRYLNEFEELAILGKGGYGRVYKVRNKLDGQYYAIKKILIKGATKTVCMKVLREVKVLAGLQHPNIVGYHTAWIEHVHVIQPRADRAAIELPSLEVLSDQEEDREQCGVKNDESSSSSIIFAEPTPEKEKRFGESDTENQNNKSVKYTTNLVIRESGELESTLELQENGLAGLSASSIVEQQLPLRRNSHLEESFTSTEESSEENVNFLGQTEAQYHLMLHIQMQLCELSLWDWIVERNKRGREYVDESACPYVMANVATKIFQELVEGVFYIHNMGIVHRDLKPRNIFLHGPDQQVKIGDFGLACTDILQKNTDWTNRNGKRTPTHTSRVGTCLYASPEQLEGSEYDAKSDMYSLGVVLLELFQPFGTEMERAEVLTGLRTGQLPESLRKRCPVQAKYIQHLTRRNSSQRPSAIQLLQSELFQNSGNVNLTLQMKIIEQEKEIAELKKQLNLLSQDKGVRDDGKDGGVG
Chain of Activin receptor type-2B (Q13705 whole entry): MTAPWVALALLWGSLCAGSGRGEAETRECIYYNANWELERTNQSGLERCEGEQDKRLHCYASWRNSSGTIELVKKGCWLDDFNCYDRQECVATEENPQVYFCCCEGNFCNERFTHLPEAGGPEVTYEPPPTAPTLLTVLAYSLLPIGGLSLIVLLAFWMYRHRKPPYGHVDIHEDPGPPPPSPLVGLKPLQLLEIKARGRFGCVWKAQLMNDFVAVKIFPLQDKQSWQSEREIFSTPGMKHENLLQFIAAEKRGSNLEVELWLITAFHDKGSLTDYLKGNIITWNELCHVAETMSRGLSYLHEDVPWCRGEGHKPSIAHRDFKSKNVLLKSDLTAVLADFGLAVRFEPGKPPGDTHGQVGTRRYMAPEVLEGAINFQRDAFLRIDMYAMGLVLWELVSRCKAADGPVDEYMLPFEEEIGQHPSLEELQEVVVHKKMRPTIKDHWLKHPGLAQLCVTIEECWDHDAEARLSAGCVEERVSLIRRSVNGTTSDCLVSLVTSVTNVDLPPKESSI
Chain of Tyrosine-protein kinase HCK (P08631 whole entry): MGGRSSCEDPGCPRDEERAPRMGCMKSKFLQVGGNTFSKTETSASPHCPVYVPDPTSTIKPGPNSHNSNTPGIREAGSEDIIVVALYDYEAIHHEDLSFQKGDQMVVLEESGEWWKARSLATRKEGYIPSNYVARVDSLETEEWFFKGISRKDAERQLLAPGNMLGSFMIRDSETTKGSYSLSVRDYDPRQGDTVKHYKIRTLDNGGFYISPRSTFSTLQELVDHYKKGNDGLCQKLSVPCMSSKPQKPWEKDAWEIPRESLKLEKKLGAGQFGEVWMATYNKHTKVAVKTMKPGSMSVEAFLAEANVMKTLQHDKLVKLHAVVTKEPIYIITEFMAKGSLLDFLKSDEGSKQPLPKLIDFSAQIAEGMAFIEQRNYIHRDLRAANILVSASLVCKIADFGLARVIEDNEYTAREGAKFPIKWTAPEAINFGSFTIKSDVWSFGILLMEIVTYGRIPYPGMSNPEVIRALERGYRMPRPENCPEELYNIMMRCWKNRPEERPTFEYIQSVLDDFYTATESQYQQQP
Chain of Ribosomal protein S6 kinase alpha-3 (P51812 whole entry): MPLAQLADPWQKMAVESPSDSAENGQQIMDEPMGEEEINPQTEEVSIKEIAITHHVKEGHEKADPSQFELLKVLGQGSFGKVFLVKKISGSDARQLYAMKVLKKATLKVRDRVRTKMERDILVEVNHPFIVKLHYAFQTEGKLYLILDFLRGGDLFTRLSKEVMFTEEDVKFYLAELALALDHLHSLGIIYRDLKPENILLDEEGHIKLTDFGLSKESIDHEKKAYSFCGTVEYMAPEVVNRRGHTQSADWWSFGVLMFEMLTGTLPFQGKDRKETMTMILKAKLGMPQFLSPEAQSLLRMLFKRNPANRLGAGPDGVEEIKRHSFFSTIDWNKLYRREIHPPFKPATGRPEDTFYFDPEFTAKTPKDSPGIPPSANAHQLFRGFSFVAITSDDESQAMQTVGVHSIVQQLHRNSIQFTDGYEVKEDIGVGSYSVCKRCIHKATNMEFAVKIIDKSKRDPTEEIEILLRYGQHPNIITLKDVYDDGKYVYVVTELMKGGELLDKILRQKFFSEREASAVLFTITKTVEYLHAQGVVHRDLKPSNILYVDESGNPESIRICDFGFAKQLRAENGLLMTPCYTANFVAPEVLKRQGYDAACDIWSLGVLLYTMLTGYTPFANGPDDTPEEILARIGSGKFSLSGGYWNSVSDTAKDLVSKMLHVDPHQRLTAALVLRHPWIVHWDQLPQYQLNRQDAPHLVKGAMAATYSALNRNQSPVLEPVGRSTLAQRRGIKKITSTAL
Chain of Atypical kinase COQ8A, mitochondrial (Q8NI60 whole entry): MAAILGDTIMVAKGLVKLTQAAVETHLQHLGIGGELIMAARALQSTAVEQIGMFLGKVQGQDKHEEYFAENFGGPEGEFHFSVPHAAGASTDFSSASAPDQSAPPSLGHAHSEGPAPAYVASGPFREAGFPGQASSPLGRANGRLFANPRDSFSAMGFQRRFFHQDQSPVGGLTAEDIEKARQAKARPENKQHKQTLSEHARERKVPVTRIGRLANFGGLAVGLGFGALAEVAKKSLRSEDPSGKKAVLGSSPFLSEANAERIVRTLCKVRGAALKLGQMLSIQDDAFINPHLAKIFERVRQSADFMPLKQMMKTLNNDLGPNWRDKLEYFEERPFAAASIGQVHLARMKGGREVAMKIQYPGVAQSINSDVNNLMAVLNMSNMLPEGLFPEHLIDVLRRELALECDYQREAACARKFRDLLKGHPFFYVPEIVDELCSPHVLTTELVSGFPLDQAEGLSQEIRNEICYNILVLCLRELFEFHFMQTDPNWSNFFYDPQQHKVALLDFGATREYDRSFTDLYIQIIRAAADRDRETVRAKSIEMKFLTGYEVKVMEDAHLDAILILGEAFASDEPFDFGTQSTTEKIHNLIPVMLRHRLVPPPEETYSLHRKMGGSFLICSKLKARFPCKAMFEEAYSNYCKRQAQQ
Chain of Serine/threonine-protein kinase MRCK alpha (Q5VT25 whole entry): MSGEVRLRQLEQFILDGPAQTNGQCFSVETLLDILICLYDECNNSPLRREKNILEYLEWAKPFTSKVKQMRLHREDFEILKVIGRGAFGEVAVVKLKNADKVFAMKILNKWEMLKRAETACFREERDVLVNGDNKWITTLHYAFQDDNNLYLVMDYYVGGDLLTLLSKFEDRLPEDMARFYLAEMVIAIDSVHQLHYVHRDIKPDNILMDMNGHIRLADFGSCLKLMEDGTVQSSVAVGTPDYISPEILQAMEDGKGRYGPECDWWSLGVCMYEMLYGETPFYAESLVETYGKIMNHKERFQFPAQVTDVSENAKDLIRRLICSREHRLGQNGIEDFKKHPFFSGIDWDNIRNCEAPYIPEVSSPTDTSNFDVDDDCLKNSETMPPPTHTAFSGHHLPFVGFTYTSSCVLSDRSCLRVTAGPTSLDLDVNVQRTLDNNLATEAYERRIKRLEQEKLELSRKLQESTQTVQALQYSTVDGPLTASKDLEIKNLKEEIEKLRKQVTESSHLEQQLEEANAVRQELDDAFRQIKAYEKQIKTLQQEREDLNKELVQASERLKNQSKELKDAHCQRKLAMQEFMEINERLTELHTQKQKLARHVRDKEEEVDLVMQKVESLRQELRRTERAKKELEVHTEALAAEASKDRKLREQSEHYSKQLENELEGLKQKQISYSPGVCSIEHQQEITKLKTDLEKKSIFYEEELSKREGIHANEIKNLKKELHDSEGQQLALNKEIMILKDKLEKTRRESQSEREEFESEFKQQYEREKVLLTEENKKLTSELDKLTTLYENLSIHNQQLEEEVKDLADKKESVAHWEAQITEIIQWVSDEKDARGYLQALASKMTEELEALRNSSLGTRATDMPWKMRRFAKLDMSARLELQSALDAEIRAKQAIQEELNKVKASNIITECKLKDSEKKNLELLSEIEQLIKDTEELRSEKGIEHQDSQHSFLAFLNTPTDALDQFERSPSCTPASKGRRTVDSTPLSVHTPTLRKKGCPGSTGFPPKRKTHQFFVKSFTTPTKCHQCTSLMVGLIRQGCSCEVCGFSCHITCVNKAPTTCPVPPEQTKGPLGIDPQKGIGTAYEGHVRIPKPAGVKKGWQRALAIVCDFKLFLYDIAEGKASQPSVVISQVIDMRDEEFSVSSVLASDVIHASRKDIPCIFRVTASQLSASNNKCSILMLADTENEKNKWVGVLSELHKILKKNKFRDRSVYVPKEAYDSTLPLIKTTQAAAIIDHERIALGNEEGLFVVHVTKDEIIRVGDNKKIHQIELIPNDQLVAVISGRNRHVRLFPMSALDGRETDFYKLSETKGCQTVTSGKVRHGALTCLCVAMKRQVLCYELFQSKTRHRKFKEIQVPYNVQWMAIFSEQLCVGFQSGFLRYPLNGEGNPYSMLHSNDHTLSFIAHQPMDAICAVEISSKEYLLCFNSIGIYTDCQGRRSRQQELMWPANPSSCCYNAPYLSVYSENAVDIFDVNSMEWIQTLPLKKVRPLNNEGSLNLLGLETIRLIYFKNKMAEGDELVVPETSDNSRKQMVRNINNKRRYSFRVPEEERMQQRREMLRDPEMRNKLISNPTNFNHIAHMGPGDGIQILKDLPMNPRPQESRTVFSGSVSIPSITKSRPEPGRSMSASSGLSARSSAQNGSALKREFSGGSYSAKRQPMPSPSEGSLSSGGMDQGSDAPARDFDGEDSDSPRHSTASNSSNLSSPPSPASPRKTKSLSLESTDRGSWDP

SMILES | Kd [1] | Kd [3] | Kd (Activin receptor type-2B) | Kd [4] | Kd (Ephrin type-B receptor 3) | Kd [5] | Kd [6] | Kd [7] | Kd [8] | Kd [2]
C1=C/COCc2cc(ccc2OCCN2CCCC2)Nc2nccc(n2)-c2cccc(c2)COC/1 [PACRITINIB] | > 30 µM (inactive) | > 30 µM (inactive) | > 30 µM (inactive) | > 30 µM (inactive) | > 30 µM (inactive) | > 30 µM (inactive) | > 30 µM (inactive) | > 30 µM (inactive) | > 30 µM (inactive) | 1.78 µM (active)
N[C@@H]1CCCN(c2c(/C=C3\SC(=O)NC3=O)cccc2-c2ccccc2)C1 | > 30 µM (inactive) | > 30 µM (inactive) | > 30 µM (inactive) | > 30 µM (inactive) | > 30 µM (inactive) | > 30 µM (inactive) | > 30 µM (inactive) | > 30 µM (inactive) | > 30 µM (inactive) | > 30 µM (inactive)
CN1CCC(COc2cnc(-c3cccc(Cn4nc(-c5cccc(C#N)c5)ccc4=O)c3)nc2)CC1 [TEPOTINIB] | > 30 µM (inactive) | > 30 µM (inactive) | > 30 µM (inactive) | > 30 µM (inactive) | > 30 µM (inactive) | > 30 µM (inactive) | > 30 µM (inactive) | > 30 µM (inactive) | > 30 µM (inactive) | > 30 µM (inactive)
O=C(c1ccc(F)c(F)c1Nc1ccc(I)cc1F)N1CC(O)([C@@H]2CCCCN2)C1 [COBIMETINIB] | > 30 µM (inactive) | > 30 µM (inactive) | > 30 µM (inactive) | > 30 µM (inactive) | > 30 µM (inactive) | > 30 µM (inactive) | > 30 µM (inactive) | > 30 µM (inactive) | > 30 µM (inactive) | > 30 µM (inactive)

Further lines, with some results ahead:

Kd [1] | Kd [3] | Kd (Activin receptor type-2B) | Kd [4] | Kd (Ephrin type-B receptor 3) | Kd [5] | Kd [6] | Kd [7] | Kd [8] | SMILES | Kd [2]
> 30 µM (inactive) | > 30 µM (inactive) | > 30 µM (inactive) | > 30 µM (inactive) | > 30 µM (inactive) | > 30 µM (inactive) | > 30 µM (inactive) | > 30 µM (inactive) | > 30 µM (inactive) | C[C@@H]1CN(Cc2ccc(F)cc2)[C@@H](C)CN1C(=O)c1cc2c(C(=O)C(=O)N(C)C)cn(C)c2cc1Cl [TALMAPIMOD] | > 30 µM (inactive)
> 30 µM (inactive) | 1.25 µM (active) | > 30 µM (inactive) | > 30 µM (inactive) | 5.5 µM (active) | > 30 µM (inactive) | > 30 µM (inactive) | > 30 µM (inactive) | > 30 µM (inactive) | COc1cc(N2CCC(N3CCN(C)CC3)CC2)ccc1Nc1ncnc(Nc2ccccc2S(=O)(=O)C(C)C)n1 [ASP-3026] | > 30 µM (inactive)
> 30 µM (inactive) | > 30 µM (inactive) | > 30 µM (inactive) | > 30 µM (inactive) | > 30 µM (inactive) | > 30 µM (inactive) | > 30 µM (inactive) | > 30 µM (inactive) | > 30 µM (inactive) | CNC(=O)CN1CCC(Oc2cc3c(Nc4cccc(Cl)c4F)ncnc3cc2OC)CC1 [SAPITINIB] | > 30 µM (inactive)
> 30 µM (inactive) | > 30 µM (inactive) | > 30 µM (inactive) | > 30 µM (inactive) | > 30 µM (inactive) | > 30 µM (inactive) | > 30 µM (inactive) | > 30 µM (inactive) | > 30 µM (inactive) | COc1cc2nccc(Oc3ccc(NC(=O)NC4CC4)c(Cl)c3)c2cc1C(N)=O [LENVATINIB] | > 30 µM (inactive)
> 30 µM (inactive) | > 30 µM (inactive) | > 30 µM (inactive) | > 30 µM (inactive) | > 30 µM (inactive) | > 30 µM (inactive) | > 30 µM (inactive) | > 30 µM (inactive) | > 30 µM (inactive) | CNC(=O)c1ccc(C)c(-n2c(C)cc(OCc3ccc(F)cc3F)c(Br)c2=O)c1 [PH-797804] | > 30 µM (inactive)
> 30 µM (inactive) | > 30 µM (inactive) | > 30 µM (inactive) | > 30 µM (inactive) | > 30 µM (inactive) | > 30 µM (inactive) | > 30 µM (inactive) | > 30 µM (inactive) | > 30 µM (inactive) | CNC(=O)c1cc(Oc2ccc(NC(=O)Nc3ccc(Cl)c(C(F)(F)F)c3)c(F)c2)ccn1 [REGORAFENIB] | > 30 µM (inactive)
